The values below come from US20060166867A1, “Novel conjugates of polysaccharides and uses thereof” (priority 2003, published 2006).

Like-named read-outs stand apart in the source and are kept apart here. Bounds are passed on as bounds.

Broadly, the EC50 is the concentration needed to bring the measured effect to its halfway point. One may read the inhibition as the drop in the measured response relative to a control, in per cent.

Series [1] concerns HIV-1 IIIB. Briefly: microbe, parasite or virus in culture. It counts as cell-based. Conditions: for inhibition activity (anti-HIV): in up to 50 μM concentrations. The method, then:
(§1) Inhibition of HIV-1 cell replication was tested using the cMAGI assay, which is based on the ability of HIV-1 TAT to transactivate the expression of an integrated β-galactosidase reporter gene driven by the HIV-LTR (B. Chackeria et al., J. Virol., (1997) 71, 3932; Collins et al., Nat. Med. (2000) 6, 475). The β-galactosidase reporter is modified to remain localized in the nucleus where it can be detected with the X-gal (5-bromo-4-chloro-3indoyl-β-D-galactopyranoside) substrate as an intense nuclear stain within a few days of infection.
(§2) HIV-1 isolates were propagated by subculture in MT2 cells (Litovchick et al. (2001) supra). Aliquots of cell-free culture supernatants were used as viral inoculum. PAACs were dissolved in the RPMI 1640 medium. Cytotoxicity determinations were carried out in MT2 cells by trypan blue exclusion assay. Viral inhibition was determined by incubating MT2 or cMAGI HIV-1 reporter cells with 0.2-0.5 multiplicity of infection of HIV-1 wild type or resistant virus for 4 days at 37° C. in the presence or absence of various concentrations of pAACs. HIV-1 infection of cMAGI cells was determined by counting the number of HIV-1-infected cells (stained blue). The cytopathic effects of the viral infection of MT2 cells were also analyzed by microscopic assessment of syncytium formation.

Series [2] in a line: in vitro. Format: cell-based. As to conditions: human, read-out: Cytotoxicity. The method, then:
Cytotoxicity of the various pAACs was determined using the trypan blue exclusion assay. In brief, a sample of the cell suspension was diluted 1:1 (v/v) with 0.4% trypan blue and the cells were counted using a hemocytometer. Results are expressed as the percentage of dead cells.
as §2

For series [3], the target named is T1, CXCR4 (Homo sapiens, UniProt P61073).
T1 construct: incubated at 4° C. with anti-CXCR4 mAb, 12G5, conjugated to phycoerithrine (PE); endogenous in cells; host or cells: MT2 cells
T1 sequence (P61073 whole entry): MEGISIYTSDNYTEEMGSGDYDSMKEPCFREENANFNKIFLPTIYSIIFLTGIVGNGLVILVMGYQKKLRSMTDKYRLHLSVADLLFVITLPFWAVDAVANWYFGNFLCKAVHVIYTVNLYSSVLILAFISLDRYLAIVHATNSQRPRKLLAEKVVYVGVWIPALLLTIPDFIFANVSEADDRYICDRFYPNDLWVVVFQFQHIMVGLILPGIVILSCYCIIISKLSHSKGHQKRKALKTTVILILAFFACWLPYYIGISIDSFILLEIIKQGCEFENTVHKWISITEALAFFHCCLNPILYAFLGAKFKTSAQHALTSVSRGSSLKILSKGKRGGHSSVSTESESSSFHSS
Kind of series: Competition with 12G5 mAb binding to CXCR4 on MT2 cells (flow cytometry). Conditions: for median fluorescent intensity (MFI) of 12G5 mAb binding to MT2 cells: without compound 55.56, isotype control 4.0. Here is the method: Interaction of pAACs and arginine peptides with CXCR4 coreceptor: Interactions of pAACs and arginine-peptides with CXCR4 were determined by flow cytometry (FACS-Scan, Becton Dickinson) as previously described (Litovich (2001) supra). In brief, 0.5×10^6 MT2 cells were washed with ice-cold PBS containing 0.1% sodium azide (wash buffer) and were incubated at 4° C. with anti-CXCR4 mAb, 12G5, conjugated to phycoerithrine (PE), in the absence or presence of different concentrations of pAACs and arginine peptides. After 30 minutes of incubation, the cells were washed with ice-cold wash buffer and fixed in PBS containing 1% paraformaldehyde. Non-specific fluorescence was assessed using an isotype control. For each sample 10,000 events were acquired. Data were analyzed and processed using CellQuest™ software (Becton Dickinson).
Background: Flow cytometry measures light scatter and fluorescence of single cells or particles in a stream.

Series [4] deals with HIV-1 clinical isolate Clade C. Format: cell-based. The method, then:
as §1, §2

The test system of series [5] is HIV-1 NeoR6 resistant virus. Format: cell-based. Conditions: read-out: EC50 NeoR6^Res; Table 4. Here is the method:
as §1, §2

In series [6] the test system is HIV-1 Protease resistant virus. It counts as cell-based. As to conditions: Table 4; read-out: EC50 Protease^Res. The method, then:
as §1, §2

In series [7] the test system is HIV-1 clinical isolate Clade A. It counts as cell-based. Here is the method: as §1, §2
Series [8] deals with HIV-1 AZT resistant virus. It counts as cell-based. Conditions: Table 4; read-out: EC50 AZT^Res. Here is the method: as §1, §2
The subject of series [9] is HIV-1 Ba-L. It counts as cell-based. As to conditions: Table 4. The method, then: as §1, §2
Series [10] relates to HIV-1 wild-type and NeoR6 resistant isolates. As to conditions: cited from earlier work.
[11] abbreviates: Table 3, against HIV-1 IIIB virus, read-out: EC50.
Where [12] appears, read: MT2 cells, Table 3, trypan blue exclusion.
Where [13] appears, read: Table 4, tryphan blue exclusion assay for MT2 cells.
[14] abbreviates: Table 4, read-out: EC50 Clade C.
Setting [15] is: Table 4, read-out: EC50 Clade A.

Consider `N=C(N)NCCC[C@H](NC(=O)[C@H](CCCNC(=N)N)NC(=O)[C@H](CCCNC(=N)N)NC(=O)[C@H](CCCNC(=N)N)NC(=O)[C@H](CCCNC(=N)N)NC(=O)[C@@H](N)CCCNC(=N)N)C(=O)O` [Compound 1, L-Arg-6mer-NH2], for which, in series [1] (setting [11]), the half-maximal effective concentration (EC50) was determined as 110 µM. In addition, the “inhibition activity (anti-HIV)” value in [1] is listed as “no inhibition activity”.

Regarding `N=C(N)NCCC[C@H](NC(=O)[C@H](CCCNC(=N)N)NC(=O)[C@H](CCCNC(=N)N)NC(=O)[C@H](CCCNC(=N)N)NC(=O)[C@H](CCCNC(=N)N)NC(=O)[C@@H](N)CCCNC(=N)N)C(=O)NC[C@H]1O[C@H](O[C@H]2[C@H](O)[C@@H](O)[C@H](N)C[C@@H]2N)[C@H](N)[C@@H](O)[C@@H]1O` [Compound 2, L-Arg-6-mer-neamine], the CC50 in series [2] (setting [12]) was determined as 210 µM. In series [3] (read-out: % Inhibition of 12G5 mAb binding to CXCR4, 20 μM), the inhibition at 20 µM was found to be 35.4%. The EC50 in [1] (setting [11]) was 70 ± 10 µM.

In the case of `N=C(N)NCCC[C@H](NC(=O)[C@H](CCCNC(=N)N)NC(=O)[C@H](CCCNC(=N)N)NC(=O)[C@H](CCCNC(=N)N)NC(=O)[C@H](CCCNC(=N)N)NC(=O)[C@@H](N)CCCNC(=N)N)C(=O)NC[C@@H]1O[C@H](O[C@H]2[C@@H](O)[C@H](O[C@@H]3[C@@H](O)[C@H](N)C[C@H](N)[C@H]3O[C@H]3O[C@H](CO)[C@@H](O)[C@H](O)[C@H]3N)O[C@@H]2CO)[C@H](N)[C@@H](O)[C@@H]1O` [Compound 3, L-Arg-6-mer-paromomycin], the CC50 in [2] (setting [12]) is 160 µM. Besides, the concentration for a half-maximal effect (EC50) in series [1] (setting [11]) stood at 31 ± 10 µM.

With `N=C(N)NCCC[C@H](NC(=O)[C@H](CCCNC(=N)N)NC(=O)[C@H](CCCNC(=N)N)NC(=O)[C@H](CCCNC(=N)N)NC(=O)[C@H](CCCNC(=N)N)NC(=O)[C@H](CCCNC(=N)N)NC(=O)[C@H](CCCNC(=N)N)NC(=O)[C@H](CCCNC(=N)N)NC(=O)[C@@H](N)CCCNC(=N)N)C(=O)NC[C@H]1O[C@H](O[C@H]2[C@H](O)[C@@H](O)[C@H](N)C[C@@H]2N)[C@H](N)[C@@H](O)[C@@H]1O` [Compound 6, L-Arg-9-mer-neamine], the CC50 in series [2] (setting [12]) came to 175 µM. Besides, the inhibition at 80 µM in series [3] (read-out: % Inhibition of 12G5 mAb binding to CXCR4, 80 μM) came out at 30.1%. Further, in series [1] (setting [11]), the EC50 was determined as 37.5 ± 2.5 µM.

With `N=C(N)NCCC[C@H](NC(=O)[C@H](CCCNC(=N)N)NC(=O)[C@H](CCCNC(=N)N)NC(=O)[C@H](CCCNC(=N)N)NC(=O)[C@H](CCCNC(=N)N)NC(=O)[C@H](CCCNC(=N)N)NC(=O)[C@H](CCCNC(=N)N)NC(=O)[C@H](CCCNC(=N)N)NC(=O)[C@@H](N)CCCNC(=N)N)C(=O)NC[C@@H]1O[C@H](O[C@H]2[C@@H](O)[C@H](O[C@@H]3[C@@H](O)[C@H](N)C[C@H](N)[C@H]3O[C@H]3O[C@H](CO)[C@@H](O)[C@H](O)[C@H]3N)O[C@@H]2CO)[C@H](N)[C@@H](O)[C@@H]1O` [Compound 7, L-Arg-9-mer-paromomycin], the CC50 in series [2] (setting [12]) worked out at 140 µM. Also, the concentration giving a half-maximal response (EC50) in [1] (setting [11]) was 31 ± 9 µM.

Consider `CC(=O)N[C@H](CCCNC(=N)N)C(=O)N[C@H](CCCNC(=N)N)C(=O)N[C@H](CCCNC(=N)N)C(=O)N[C@H](CCCNC(=N)N)C(=O)N[C@H](CCCNC(=N)N)C(=O)N[C@H](CCCNC(=N)N)C(=O)O` [Compound 9, D-Arg-6-mer-NHAc], for which the EC50 is 5.3 ± 0.3 µM in series [4] (clinical isolate Clade C); 6.8 ± 0.7 µM in series [5]; 4.9 ± 1 µM in series [6]; 8 ± 1 µM in [7] (clinical isolate Clade A); 15.2 ± 6.2 µM in series [8]; above 50 µM in series [9]. In series [1] (Table 4, read-out: EC50 IIIB), the EC50 worked out at 5.8 ± 1.7 µM. Besides, the CC50 in series [2] (setting [13]) came to 170 µM. The inhibition at 2 µM in series [3] (2 μM, read-out: % Inhibition of 12G5 mAb binding to CXCR4) came out at 1.6%. Further, the inhibition at 10 µM in series [3] (10 μM, read-out: % Inhibition of 12G5 mAb binding to CXCR4) turned out to be 70.9%.

For `CC(=O)N[C@H](CCCNC(=N)N)C(=O)N[C@H](CCCNC(=N)N)C(=O)N[C@H](CCCNC(=N)N)C(=O)N[C@H](CCCNC(=N)N)C(=O)N[C@H](CCCNC(=N)N)C(=O)N[C@H](CCCNC(=N)N)C(=O)NC[C@H]1O[C@H](O[C@H]2[C@H](O)[C@@H](O)[C@H](N)C[C@@H]2N)[C@H](N)[C@@H](O)[C@@H]1O` [Compound 10, D-Arg-6-mer-neamine], the EC50 is 1.7 ± 0.1 µM in [4] (setting [14]); 2.6 ± 1.2 µM in series [5]; 2.2 ± 0.4 µM in [6]; 3.2 ± 1.3 µM in series [7] (setting [15]); 7 ± 4 µM in series [8]; above 50 µM in series [9]. Moreover, the 50% effective concentration (EC50) in series [1] (Table 4, read-out: EC50 IIIB) was determined as 1.8 ± 0.1 µM. The CC50 in [2] (setting [13]) came out at 150 µM. The “% Inhibition of 12G5 mAb binding to CXCR4” value in [3] (2 μM) came out at 91.1%. The “median fluorescent intensity (MFI) of 12G5 mAb binding to MT2 cells” value is given as 9.6 in series [3] (2 μM) and 3.3 in [3] (10 μM). In [3] (read-out: % Inhibition of 12G5 mAb binding to CXCR4, 2 μM), the inhibition at 2 µM worked out at 91%. Besides, in series [3] (read-out: % Inhibition of 12G5 mAb binding to CXCR4, 10 μM), the inhibition at 10 µM turned out to be 100%.

For the compound `N=C(N)NCCCC(N)C(=O)NC(CCCNC(=N)N)C(=O)NC(CCCNC(=N)N)C(=O)NC(CCCNC(=N)N)C(=O)NC(CCCNC(=N)N)C(=O)NC(CCCNC(=N)N)C(=O)NC(CCCNC(=N)N)C(=O)NC(CCCNC(=N)N)C(=O)NC(CCCNC(=N)N)C(=O)NC[C@H]1O[C@H](O[C@H]2[C@H](O)[C@@H](O)[C@H](N)C[C@@H]2N)[C@H](N)[C@@H](O)[C@@H]1O` (stereo partly drawn) [Compound 16, D/L-Arg-9-mer-neamine], the CC50 in series [2] (setting [12]) was 160 µM.

As to `N=C(N)NCCC[C@H](NC(=O)[C@@H](N)CCCNC(=N)N)C(=O)NCC1OC(OC2C(N)CC(N)C(O)C2O)C(N)C(O)C1O` (stereo partly drawn) [Compound 21, L-Arg-2-mer-neamine], in series [1] (setting [11]), the 50% effective concentration (EC50) is around 46 µM.

With `NC[C@H]1O[C@H](O[C@H]2[C@H](O)[C@@H](O)[C@H](N)C[C@@H]2N)[C@H](N)[C@@H](O)[C@@H]1O` [neamine, Neamine, reference compound], the “inhibition activity (anti-HIV)” value in series [1] is on record as “no inhibition activity”.

In the case of D-Arg-6-mer-neomycin [Compound 11], the EC50 in [4] (setting [14]) was 3 ± 0.8 µM; in series [5] it was 5.3 ± 2.5 µM; in series [6], 4 ± 1 µM; in [7] (setting [15]), 5.7 ± 2.8 µM; in series [8], 10.4 ± 4.1 µM; in series [9], above 50 µM. Moreover, the EC50 in series [1] (Table 4, read-out: EC50 IIIB) was 2.1 ± 0.6 µM. Besides, the “% Inhibition of 12G5 mAb binding to CXCR4” value in [3] (2 μM) is given as 79%; in series [3] (2 μM, listed as r6-D-arginine-neomycin), 91.1%; in [3] (10 μM) it was 99.3%.

Consider L-Arg-6-mer-neomycin [Compound 4], for which the half-maximal effective concentration (EC50) in series [1] (setting [11]) worked out at 40 ± 12 µM.

As for “tri-arginine gentamycin C1 conjugate [Compound R3G]”, in series [10], the “times more resistant, NeoR6^res isolates than wild-type virus” value was “about 5 times”. Also, the concentration giving a half-maximal response (EC50) in [10] (wild-type and NeoR6 resistant isolates) was 4.1 µM.
